Results reported in patent publication US20220331303A1, “USE OF AN OREXIN 2 RECEPTOR AGONIST FOR THE TREATMENT OF EXCESSIVE SLEEPINESS” (Takeda Pharmaceutical Company Limited, priority 2019, published 2022).

Experiments:
Format in all cases: in vivo, human
[1] = test system: subjects with obstructive sleep apnea; experiment: MWT in subjects with OSA experiencing EDS despite CPAP; settings: single 9-hour IV infusion
Description: The treatment periods began on Day 1 of Treatment Period 1 (Study Day 1) with Treatment Periods 2 and 3 commencing on Study Days 3 and 5, respectively. In the morning of Day 1 of Treatment Period 1, eligible subjects were randomized to 1 of the 6 sequence groups as listed in Table 36. After randomization, the subject was dosed in 3 treatment periods according to the order defined by the sequence group to which he/she was randomized. On Day 1 of each treatment period, Compound A or placebo was administered as a single 9-hour IV infusion commencing at approximately 08:00. The infusion was terminated at approximately 17:00. On Day 1 of each treatment period, four 40-minute maintenance of wakefulness test (MWT) sessions was performed at 2, 4, 6, and 8 hours after the start of the infusion. Subjects were required to stay awake in between the MWT sessions.
(§1) On Day 1 of Treatment Period 1, all eligible subjects were randomized and received the first dose of study drug. Compound A or placebo was administered as a single 9-hour IV infusion commencing at approximately 08:00. […] Blood samples for determination of Compound A plasma concentrations were collected predose and at specified time points postdose, Safety assessments were recorded. During the study, AEs were recorded, clinical laboratory tests, vital signs, and safety ECGs were obtained. […]

patients with NT2 = experiment: Safety/tolerability of multiple IV doses in patients with NT2
Description: The purpose of the study was to evaluate the safety, tolerability, pharmacokinetics and pharmacodynamics of Compound A after multiple days of IV administration in patients with NT2. NT2 patients were evaluated in Cohort C1 and C2 (Table 30). Compound A or placebo were administered via IV infusion over 9 hours once daily for 7 days. A total of 14 patients with NT2 were treated with Compound A or placebo (5, 4, and 5 subjects in the placebo, Compound A 44 mg, and Compound A 112 mg groups, respectively). In this part, potential efficacy of Compound A was evaluated with MWT, ESS, KSS, night-time PSG (NPSG), and PGI-C as an exploratory PD assessment.

[2] = test system: subjects with obstructive sleep apnea; experiment: Safety/tolerability of single dose in subjects with OSA; settings: single doses 44 mg and 112 mg, infusion over 9 hours, OSA patients
From the text: The purpose of the study was to evaluate the pharmacokinetics (PK), pharmacodynamics (PD), safety and tolerability of a single intravenous (IV) dose of Compound A in adults who have been diagnosed with obstructive sleep apnea (OSA) and who are experiencing excessive daytime sleepiness (EDS) despite adequate use of CPAP. Twenty-five patients were randomized, and 23 patients completed the study. All patients at entry were having EDS despite being adequately controlled by CPAP for their sleep apnea.
as §1, with “08:00. On each dosing day (Study Days 1, 3, and 5), 40-minute MWT sessions were performed at 2, 4, 6, and 8 hours after the start of the infusion. There was a minimum 24-hour washout interval between the end of the infusion and the commencement of treatment in subsequent treatment periods to allow for complete elimination of the preceding treatment effect.” for “08:00.”

[3] = multiple IV administrations of up to 112 mg, NT2 patients

SMILES: COC(=O)N1CCC[C@H](NS(C)(=O)=O)[C@@H]1CO[C@H]1CC[C@@H](c2ccccc2)CC1 [Compound A, methyl (2R,3S)-3-((methylsulfonyl)amino)-2-(((cis-4-phenylcyclohexyl)oxy)methyl)piperidine-1-carboxylate]
- Mean placebo-adjusted increase in sleep latency in the MWT ([1]; Compound A 44 mg): 22 min
- Mean placebo-adjusted increase in sleep latency in the MWT ([1]; Compound A 112 mg): 28 min
- Number of TEAE related to BP (blood pressure increased) (patients with NT2; Compound A 112 mg group, mild intensity): 1
- SAE / TEAE leading to study drug discontinuation (patients with NT2; [3]): no SAE, and no TEAE leading to study drug discontinuation
- Safety and tolerability (patients with NT2; [3]): safe and well tolerated
- Safety and tolerability [2]: safe and well tolerated
